Assay results as given in US20030013078A1, “HIV-1 reporter viruses and their use in assaying anti-viral compounds” (priority 2000, published 2003).

Tests used:
Format in all cases: cell-based, HIV-1
JRFNFLuc = experiment: Inhibition of JRFNFLuc reporter virus infection in MT-2 #18 cells (firefly luciferase activity); settings: for EC50: Human immunodeficiency virus 1, read-out: EC50, inhibition of viral replication
Description: (§1) MT-2 #18 cells were pelleted and infected with virus stocks at a multiplicity of infection (MOI) of 0.01 at 37° C. for 2hrs. Viruses were removed and cells were washed twice with 1×PBS before re-suspending in a final concentration of 10,000 cells/100 uL. Infectivity and drug sensitivity assays were carried out in 96 well tissue culture plates, and kinetic studies were carried out in T-25 flasks. Cell supernatants were harvested on day 0, 2, 3, 5 or 6, and passaged virus was harvested on day 2 or 3. The activity for the capsid protein p24 was analyzed according to manufacturer's protocol utilizing the Zeptometrix Retrotek product (Zeptometrix Incorporated, Buffalo, N.Y.).
Large volume cultures of MT-2 #18 cells were prepared and kept at a concentration of less than 0.5×10^6 cells per milliliter in RPMI media with 10% fetal calf serum. Test compounds were plated into a 96 well tissue culture treated clear bottom black plates (Corning Incorporated, Corning, N.Y.) at a concentration of 3 mM in 20 microliters of dionized water and 5% dimethyl sulfoxide. MT-2 #18 cells were pelleted via low speed centrifugation and re-suspended in fresh media. Reporter viruses were added to the fresh media and cells to obtain the appropriate MOI of 0.01 and a cell concentration of 1×10^4 in 160 microliters. Twenty microliters per well of 2×complete modified eagle's media was then added to compensate for the dionized water volume. 180 microliters of this mixture is then added to each test compound well and control wells. Following a 5 to 6 day incubation at 37° C., media was aspirated from the wells utilizing a 12-channel manifold.
The replication ability of the NL4Rluc and JRFNRLuc viruses were then compared to that of the JRFNFLuc virus. JRFNFLuc differs from JRFNRLuc in that it encodes the firefly luciferase gene instead of the renilla luciferase gene. JRFNFLuc was constructed in a fashion similar to that previously reported (Chen et al., 1994). Infection of T-cell lines by JRFNFLuc was carried out exactly as that was done for NL4Rluc and JRFNRLuc viruses. […] Upon passing the day 6 post infection JRFNFLuc supernatant onto uninfected MT-2 #18 cells, no firefly luciferase activity or p24 production could be detected up to seven days post inoculation (data not shown). […] The finding that this virus was not capable of inhibition by a late stage HIV-1 replication cycle inhibitor is further evidence of it not being able to replicate.

NL4Rluc = experiment: Inhibition of NL4Rluc reporter virus replication in MT-2 #18 cells (renilla luciferase activity); settings: Human immunodeficiency virus 1, read-out: EC50, inhibition of viral replication
Description: as §1
(§2) Large volume cultures of MT-2 #18 cells were prepared and kept at a concentration of less than 0.5×10^6 cells per milliliter in RPMI media with 10% fetal calf serum. Test compounds were plated into a 96 well tissue culture treated clear bottom black plates (Corning Incorporated, Corning, N.Y.) at a concentration of 3 mM in 20 microliters of dionized water and 5% dimethyl sulfoxide. […]
(§3) Renilla luciferase activity was measured using the Promega Dual Luciferase Reporter kit (Promega Corp., Madison, Wis.). […] Following the substrate addition, plates were immediately sealed and read for 5 seconds per well in a Wallac Microbeta 1450 (Perkin-Elmer Wallac Incorporated, Gaithersburg, Md.) in the luminescence mode. […]

JRFNRLuc = experiment: Inhibition of JRFNRLuc reporter virus replication in MT-2 #18 cells (renilla luciferase activity); settings: Human immunodeficiency virus 1, read-out: EC50, inhibition of viral replication
Description: as §1, §2, §3

JRFNSEAP = experiment: Inhibition of JRFNSEAP reporter virus replication in MT-2 #18 cells (SEAP activity); settings: Human immunodeficiency virus 1, provirus JRFNSEAP (CCR5-tropic), MOI 0.01, read-out: EC50, inhibition of viral replication
Description: as §1, §2
Secreted placental alkaline phosphatase (SEAP) activity was measured using the a 1,2 dioxetane alkaline phosphatase substrate called CSPD (Tropix PE Applied Biosystems, Bedford, Mass.). […] Light emission can be measured utilizing a scintillation counter or a luminometer. […]

In the case of `CC(C)CN(C[C@@H](O)[C@H](Cc1ccccc1)NC(=O)O[C@H]1CCOC1)S(=O)(=O)c1ccc(N)cc1` [Amprenavir], the “Non-inhibiting concentration on JRFNFLuc relative to the EC50 on the replication competent JRFNRLuc” value (JRFNFLuc; 10 uM versus JRFNRLuc) is reported as “over 1000 fold”, the EC50 (JRFNFLuc) is reported as > 10000 nM and the “Inhibition of JRFNFLuc virus” value (JRFNFLuc; at 10 uM) is reported as “unable to inhibit”. It also gave an EC50 (NL4Rluc) of 19.4 nM, an EC50 (JRFNRLuc) of 6.9 nM and an EC50 (JRFNSEAP) of 21.5 nM.
`O=C1Nc2ccc(Cl)cc2[C@@](C#CC2CC2)(C(F)(F)F)O1` [Efavirenz] gave an EC50 (JRFNFLuc) of 0.18 nM, an EC50 (NL4Rluc) of 0.36 nM and an EC50 (JRFNRLuc) of 0.12 nM. The EC50 (JRFNSEAP) was 0.1 nM.
